Tests used:
Assay in all cases: KINOMEscan (ScanMAX) kinase profiling
Type in all cases: binding
[1] = target: T1, panel of 468 kinases (Homo sapiens, UniProt Q96GD4); conditions: AURKB; 1 μM; read-out: % control
T1 construct: purchased KINOMEscan (ScanMAX) service

[2] = target: T2, panel of 468 kinases (Homo sapiens, UniProt P35968); conditions: VEGFR2; 1 μM; read-out: % control
T2 construct: purchased KINOMEscan (ScanMAX) service

[3] = target: T3, panel of 468 kinases (Homo sapiens, UniProt P37173); conditions: TGFBR2; 1 μM; read-out: % control
T3 construct: purchased KINOMEscan (ScanMAX) service

[4] = target: T4, panel of 468 kinases (Homo sapiens, UniProt Q8IVW4); conditions: CDKL3; 1 μM; read-out: % control
T4 construct: purchased KINOMEscan (ScanMAX) service

[5] = target: T5, panel of 468 kinases (Homo sapiens, UniProt Q15375); conditions: EPHA7; 1 μM; read-out: % control
T5 construct: purchased KINOMEscan (ScanMAX) service

[6] = target: T6, panel of 468 kinases (Homo sapiens, UniProt Q8N568); conditions: DCAMKL2; 1 μM; read-out: % control
T6 construct: purchased KINOMEscan (ScanMAX) service

[7] = target: T7, panel of 468 kinases (Homo sapiens, UniProt O43283); conditions: LZK; 1 μM; read-out: % control
T7 construct: purchased KINOMEscan (ScanMAX) service
T7 sequence (O43283 1-966): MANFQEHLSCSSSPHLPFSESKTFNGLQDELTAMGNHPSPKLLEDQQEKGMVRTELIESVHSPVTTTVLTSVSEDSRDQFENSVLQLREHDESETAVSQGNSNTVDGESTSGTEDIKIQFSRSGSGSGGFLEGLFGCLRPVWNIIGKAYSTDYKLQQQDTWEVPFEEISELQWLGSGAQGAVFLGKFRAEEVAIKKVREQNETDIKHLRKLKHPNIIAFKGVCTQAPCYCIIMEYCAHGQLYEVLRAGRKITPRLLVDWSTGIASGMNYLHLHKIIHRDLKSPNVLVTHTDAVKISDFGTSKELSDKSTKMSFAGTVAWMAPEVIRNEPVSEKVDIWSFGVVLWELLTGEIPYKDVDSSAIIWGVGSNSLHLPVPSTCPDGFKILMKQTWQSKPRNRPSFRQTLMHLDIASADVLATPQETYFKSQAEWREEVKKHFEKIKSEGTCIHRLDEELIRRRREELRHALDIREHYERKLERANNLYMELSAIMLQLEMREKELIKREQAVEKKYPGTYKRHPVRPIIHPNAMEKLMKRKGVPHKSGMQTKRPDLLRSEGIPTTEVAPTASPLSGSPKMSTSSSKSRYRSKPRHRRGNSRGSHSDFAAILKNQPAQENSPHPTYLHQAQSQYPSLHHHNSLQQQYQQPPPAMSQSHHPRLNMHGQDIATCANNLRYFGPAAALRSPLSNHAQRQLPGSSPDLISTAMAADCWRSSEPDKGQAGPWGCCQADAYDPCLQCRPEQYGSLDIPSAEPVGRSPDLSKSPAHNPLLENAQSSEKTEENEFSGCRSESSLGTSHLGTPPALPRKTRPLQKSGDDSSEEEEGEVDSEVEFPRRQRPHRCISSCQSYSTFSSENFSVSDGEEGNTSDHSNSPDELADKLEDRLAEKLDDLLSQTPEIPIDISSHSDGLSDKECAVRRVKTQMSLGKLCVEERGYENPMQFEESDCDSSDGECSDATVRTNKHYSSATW

[8] = target: T8, panel of 468 kinases (Homo sapiens, UniProt O15146); conditions: MUSK; 1 μM; read-out: % control
T8 construct: purchased KINOMEscan (ScanMAX) service
T8 sequence (O15146 24-869): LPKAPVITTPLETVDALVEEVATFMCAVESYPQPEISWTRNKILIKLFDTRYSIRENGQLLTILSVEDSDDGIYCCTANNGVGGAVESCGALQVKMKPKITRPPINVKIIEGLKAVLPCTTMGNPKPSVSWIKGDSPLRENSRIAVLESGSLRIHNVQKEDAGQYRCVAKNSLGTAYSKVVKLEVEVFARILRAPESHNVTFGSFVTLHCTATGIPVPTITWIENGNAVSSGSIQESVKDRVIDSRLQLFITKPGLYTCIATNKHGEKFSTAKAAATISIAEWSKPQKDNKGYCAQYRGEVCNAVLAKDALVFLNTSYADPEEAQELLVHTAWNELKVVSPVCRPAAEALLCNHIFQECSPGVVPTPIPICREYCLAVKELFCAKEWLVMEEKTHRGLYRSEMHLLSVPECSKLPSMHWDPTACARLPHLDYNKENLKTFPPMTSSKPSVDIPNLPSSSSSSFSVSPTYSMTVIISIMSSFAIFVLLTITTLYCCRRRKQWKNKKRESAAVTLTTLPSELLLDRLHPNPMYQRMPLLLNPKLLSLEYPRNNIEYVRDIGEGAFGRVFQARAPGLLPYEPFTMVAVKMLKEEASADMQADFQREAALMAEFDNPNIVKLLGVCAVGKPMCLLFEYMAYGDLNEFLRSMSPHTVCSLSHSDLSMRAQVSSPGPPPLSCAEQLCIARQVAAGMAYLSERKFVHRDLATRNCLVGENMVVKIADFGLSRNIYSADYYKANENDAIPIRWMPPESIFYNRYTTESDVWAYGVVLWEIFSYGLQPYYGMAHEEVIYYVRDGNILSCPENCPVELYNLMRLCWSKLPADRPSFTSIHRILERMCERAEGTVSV

[9] = target: T9, panel of 468 kinases (Homo sapiens, UniProt Q05397); conditions: FAK; 1 μM; read-out: % control
T9 construct: purchased KINOMEscan (ScanMAX) service

[10] = target: T10, panel of 468 kinases (Homo sapiens, UniProt P27361); conditions: ERK1; 1 μM; read-out: % control
T10 construct: purchased KINOMEscan (ScanMAX) service
T10 sequence (P27361 whole entry): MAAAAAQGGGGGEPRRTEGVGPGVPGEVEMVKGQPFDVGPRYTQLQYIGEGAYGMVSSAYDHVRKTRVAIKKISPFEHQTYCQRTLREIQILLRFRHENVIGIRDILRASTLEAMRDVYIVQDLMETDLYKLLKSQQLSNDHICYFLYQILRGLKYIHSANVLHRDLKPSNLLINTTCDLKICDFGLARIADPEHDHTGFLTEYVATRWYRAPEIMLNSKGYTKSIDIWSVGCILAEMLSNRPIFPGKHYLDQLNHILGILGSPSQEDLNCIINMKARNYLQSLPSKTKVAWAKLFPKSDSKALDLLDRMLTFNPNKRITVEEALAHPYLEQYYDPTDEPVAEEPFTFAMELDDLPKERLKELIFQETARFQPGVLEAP

T1 sequence (Q96GD4 whole entry): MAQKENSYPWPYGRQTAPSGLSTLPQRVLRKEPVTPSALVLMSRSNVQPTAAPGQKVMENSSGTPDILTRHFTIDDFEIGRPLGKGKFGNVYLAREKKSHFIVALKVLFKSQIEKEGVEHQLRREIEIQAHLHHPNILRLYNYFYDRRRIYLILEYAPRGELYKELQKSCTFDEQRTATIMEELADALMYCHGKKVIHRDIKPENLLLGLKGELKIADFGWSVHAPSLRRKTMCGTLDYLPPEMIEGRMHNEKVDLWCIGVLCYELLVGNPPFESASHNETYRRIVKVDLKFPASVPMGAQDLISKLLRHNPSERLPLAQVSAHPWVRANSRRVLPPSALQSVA
T9 sequence (Q05397 whole entry): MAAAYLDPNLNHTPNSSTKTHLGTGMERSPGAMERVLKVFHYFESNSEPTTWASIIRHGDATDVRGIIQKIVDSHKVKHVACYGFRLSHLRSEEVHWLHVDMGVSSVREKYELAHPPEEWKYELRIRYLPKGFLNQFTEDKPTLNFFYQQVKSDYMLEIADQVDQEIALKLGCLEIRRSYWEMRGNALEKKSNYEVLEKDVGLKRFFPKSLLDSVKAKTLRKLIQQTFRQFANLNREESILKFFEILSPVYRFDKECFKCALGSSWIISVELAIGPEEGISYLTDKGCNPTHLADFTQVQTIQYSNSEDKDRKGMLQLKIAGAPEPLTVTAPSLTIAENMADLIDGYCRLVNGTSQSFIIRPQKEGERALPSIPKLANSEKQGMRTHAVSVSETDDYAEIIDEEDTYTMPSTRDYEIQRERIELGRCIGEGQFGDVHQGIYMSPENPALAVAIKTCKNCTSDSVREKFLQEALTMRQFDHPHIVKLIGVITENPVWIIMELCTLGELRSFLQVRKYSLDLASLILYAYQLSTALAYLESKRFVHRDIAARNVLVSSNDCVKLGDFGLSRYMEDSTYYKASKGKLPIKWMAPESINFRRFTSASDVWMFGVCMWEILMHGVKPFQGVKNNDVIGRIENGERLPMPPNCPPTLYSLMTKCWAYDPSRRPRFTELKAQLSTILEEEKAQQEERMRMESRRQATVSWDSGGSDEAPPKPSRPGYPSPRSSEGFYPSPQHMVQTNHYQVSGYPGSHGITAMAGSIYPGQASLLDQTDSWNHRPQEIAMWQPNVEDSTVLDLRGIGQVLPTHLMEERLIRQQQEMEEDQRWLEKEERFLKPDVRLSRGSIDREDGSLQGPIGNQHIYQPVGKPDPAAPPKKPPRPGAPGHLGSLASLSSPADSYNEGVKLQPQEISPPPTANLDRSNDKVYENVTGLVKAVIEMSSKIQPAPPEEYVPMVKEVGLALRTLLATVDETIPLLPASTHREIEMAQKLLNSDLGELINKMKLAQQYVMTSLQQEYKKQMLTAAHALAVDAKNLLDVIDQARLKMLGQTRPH
T4 sequence (Q8IVW4 whole entry): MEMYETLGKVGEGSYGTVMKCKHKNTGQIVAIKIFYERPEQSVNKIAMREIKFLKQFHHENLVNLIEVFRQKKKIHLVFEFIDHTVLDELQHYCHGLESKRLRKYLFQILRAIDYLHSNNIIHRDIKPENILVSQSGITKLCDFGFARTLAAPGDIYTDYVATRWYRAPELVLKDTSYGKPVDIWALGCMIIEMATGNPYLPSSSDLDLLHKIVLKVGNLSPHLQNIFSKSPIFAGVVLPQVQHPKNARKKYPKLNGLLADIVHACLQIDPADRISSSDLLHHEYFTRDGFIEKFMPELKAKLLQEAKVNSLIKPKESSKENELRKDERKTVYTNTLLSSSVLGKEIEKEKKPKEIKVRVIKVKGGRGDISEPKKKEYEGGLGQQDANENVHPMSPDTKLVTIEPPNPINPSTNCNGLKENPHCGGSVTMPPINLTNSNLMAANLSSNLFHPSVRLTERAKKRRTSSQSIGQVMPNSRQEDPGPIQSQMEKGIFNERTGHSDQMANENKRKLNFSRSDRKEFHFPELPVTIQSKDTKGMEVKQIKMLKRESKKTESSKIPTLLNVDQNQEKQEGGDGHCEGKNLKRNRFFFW
T5 sequence (Q15375 28-998): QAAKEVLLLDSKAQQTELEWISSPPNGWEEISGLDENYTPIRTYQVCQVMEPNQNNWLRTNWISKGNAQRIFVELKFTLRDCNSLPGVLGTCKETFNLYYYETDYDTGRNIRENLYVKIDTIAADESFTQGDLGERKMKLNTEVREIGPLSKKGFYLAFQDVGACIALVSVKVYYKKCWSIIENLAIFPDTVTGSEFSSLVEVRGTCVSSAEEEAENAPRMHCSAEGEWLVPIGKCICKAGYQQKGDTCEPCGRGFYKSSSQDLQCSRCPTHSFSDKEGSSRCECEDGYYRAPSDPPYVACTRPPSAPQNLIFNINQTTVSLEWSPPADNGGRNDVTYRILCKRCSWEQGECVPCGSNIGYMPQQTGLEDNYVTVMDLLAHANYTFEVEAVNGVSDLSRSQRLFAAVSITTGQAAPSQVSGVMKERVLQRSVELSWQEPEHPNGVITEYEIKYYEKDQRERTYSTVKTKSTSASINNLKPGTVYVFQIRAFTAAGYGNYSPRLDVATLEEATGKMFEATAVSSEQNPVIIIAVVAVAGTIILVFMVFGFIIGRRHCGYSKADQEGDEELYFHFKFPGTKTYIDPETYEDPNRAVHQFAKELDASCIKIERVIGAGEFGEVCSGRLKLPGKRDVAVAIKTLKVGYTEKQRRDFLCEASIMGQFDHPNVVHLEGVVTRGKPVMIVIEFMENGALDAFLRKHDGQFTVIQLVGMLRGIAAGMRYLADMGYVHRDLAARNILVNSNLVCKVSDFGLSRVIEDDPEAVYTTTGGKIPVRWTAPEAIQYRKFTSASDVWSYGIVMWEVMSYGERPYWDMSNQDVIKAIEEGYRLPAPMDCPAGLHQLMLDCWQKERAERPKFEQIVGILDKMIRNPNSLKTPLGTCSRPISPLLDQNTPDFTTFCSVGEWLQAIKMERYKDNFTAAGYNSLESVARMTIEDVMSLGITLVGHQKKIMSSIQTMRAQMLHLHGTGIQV
T3 sequence (P37173 23-567): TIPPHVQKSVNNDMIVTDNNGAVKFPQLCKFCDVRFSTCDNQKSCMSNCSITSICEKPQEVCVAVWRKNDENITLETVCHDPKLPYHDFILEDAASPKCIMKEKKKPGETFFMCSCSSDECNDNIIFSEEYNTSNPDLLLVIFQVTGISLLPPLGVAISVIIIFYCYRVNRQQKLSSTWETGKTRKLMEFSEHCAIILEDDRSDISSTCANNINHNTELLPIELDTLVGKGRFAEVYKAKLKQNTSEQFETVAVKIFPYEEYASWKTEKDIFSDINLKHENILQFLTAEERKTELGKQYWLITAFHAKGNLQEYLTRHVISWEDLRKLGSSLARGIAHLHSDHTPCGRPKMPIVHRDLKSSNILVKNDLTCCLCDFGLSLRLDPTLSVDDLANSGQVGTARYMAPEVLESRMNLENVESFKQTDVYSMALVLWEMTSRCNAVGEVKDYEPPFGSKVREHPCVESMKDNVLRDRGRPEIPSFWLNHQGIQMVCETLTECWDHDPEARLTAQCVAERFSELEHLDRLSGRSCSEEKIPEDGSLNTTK
T6 sequence (Q8N568 whole entry): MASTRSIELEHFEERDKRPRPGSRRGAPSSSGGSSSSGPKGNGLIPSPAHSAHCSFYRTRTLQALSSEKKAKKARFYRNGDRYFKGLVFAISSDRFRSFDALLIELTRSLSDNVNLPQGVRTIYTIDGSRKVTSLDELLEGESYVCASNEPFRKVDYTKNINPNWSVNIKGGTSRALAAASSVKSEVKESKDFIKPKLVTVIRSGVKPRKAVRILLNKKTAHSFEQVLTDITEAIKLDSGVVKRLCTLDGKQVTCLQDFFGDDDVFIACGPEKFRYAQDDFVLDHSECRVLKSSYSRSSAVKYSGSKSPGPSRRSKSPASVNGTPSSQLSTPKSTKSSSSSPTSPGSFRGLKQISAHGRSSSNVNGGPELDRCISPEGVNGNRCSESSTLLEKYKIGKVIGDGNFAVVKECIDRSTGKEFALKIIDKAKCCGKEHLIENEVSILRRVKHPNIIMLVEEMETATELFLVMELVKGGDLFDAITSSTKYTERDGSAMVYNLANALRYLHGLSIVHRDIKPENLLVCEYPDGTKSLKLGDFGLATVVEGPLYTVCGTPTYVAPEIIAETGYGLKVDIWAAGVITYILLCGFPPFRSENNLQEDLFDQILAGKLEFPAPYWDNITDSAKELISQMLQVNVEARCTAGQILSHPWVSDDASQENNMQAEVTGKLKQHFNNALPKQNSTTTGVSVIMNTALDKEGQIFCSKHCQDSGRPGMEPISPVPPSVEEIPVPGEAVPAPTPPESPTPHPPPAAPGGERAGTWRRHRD

Row | SMILES | remaining binding at 1 µM [1] [%] | remaining binding at 1 µM [2] [%] | remaining binding at 1 µM [3] [%] | remaining binding at 1 µM [4] [%] | remaining binding at 1 µM [5] [%] | remaining binding at 1 µM [6] [%] | remaining binding at 1 µM [7] [%] | remaining binding at 1 µM [8] [%] | remaining binding at 1 µM [9] [%] | remaining binding at 1 µM [10] [%]
1 | CNc1nc(Nc2ccc(S(=O)(=O)N3CCC(N4CCOCC4)CC3)cc2OC)nc2[nH]cc(Cl)c12 [Compound 12, 5-chloro-N2-(2-methoxy-4-((4-morpholinopiperidin-1-yl)sulfonyl)phenyl)-N4-methyl-7H-pyrrolo[2,3-d]pyrimidine-2,4-diamine] | 73 | 91 | 100 | 100 | 100 | 96 | 63 | 98 | 19 | 100
2 | CNc1nc(Nc2ccc(C(=O)N3CCC(N4CCOCC4)CC3)c3c2OCO3)nc2[nH]cc(Cl)c12 [Compound 75, (7-((5-chloro-4-(methylamino)-7H-pyrrolo[2,3-d]pyrimidin-2-yl)amino)benzo[d][1,3]dioxol-4-yl)(4-morpholinopiperidin-1-yl)methanone] | 57 | 54 | 100 | 100 | 100 | 99 | 57 | 21 | 39 | 100
3 | CNc1nc(Nc2ccc(P3(=O)CCN(C4CCOCC4)CC3)cc2OC)nc2[nH]cc(Cl)c12 [Compound 77, 4-(4-((5-chloro-4-(methylamino)-7H-pyrrolo[2,3-d]pyrimidin-2-yl)amino)-3-methoxyphenyl)-1-(tetrahydro-2H-pyran-4-yl)-1,4-azaphosphinane 4-oxide] | 74 | 91 | 100 | 100 | 100 | 100 | 62 | 72 | 33 | 100

Reference: patent US12479847B2 (DANA-FARBER CANCER INSTITUTE, INC., priority 2019, dated 2025)
